Consider three compounds from PMC10609944, “Development of a Dosage form for a Photoswitchable Local Anesthetic Ethercaine” (Pharmaceuticals, 2023).

Details of series [1]: method as in PMID 35628162. To be noted: in 4% Kolliphor ELP; cited from earlier work.
The nature of series [2]: Solubilization of ethercaine: maximum solubility. Type of series: physicochemical. The source says:
Since ETH itself, as a free base, is virtually insoluble in water and only partially soluble in 4% solution of Kolliphor ELP, at the first stage it was decided to study the effects of increasing the concentration of Kolliphor ELP and replacing it with Pluronic F127. Pluronic F127 is also an FDA-approved solubilizer of a different nature to the Kolliphor ELP, so it was selected as an alternative solubilizer for the study. Both substances are surfactants capable of forming direct micelles in aqueous solutions for loading hydrophobic compounds that are sparingly soluble in water. We chose a 4% concentration of Kolliphor ELP as the initial concentration that is suitable for the solubilization of hydrophobic dyes but is safe for clinical use, including for intravenous administration. In the case of other administration routes, for example, for ophthalmic use, this concentration can be increased. For further studies, we chose a 10% concentration of Kolliphor ELP. Despite an almost two-fold increase in the maximum solubility of ETH (Table 1) with an increase in the concentration of Kolliphor ELP from 4% to 10%, data on biological activity indicated an unstable and undulating local anesthetic effect on the cornea of the rabbit eye according to the Regnier method, which appeared to be due to the delayed drug release at high surfactant concentrations.
At the next stage of the solubility study, micelle-forming solubilizers and an anesthetic in the form of the ETH·HCl salt were used.
A solution of 4-(2-(N-morpholino)-ethoxy)-azobenzene hydrochloride (2) (50.0 mg) in dichloromethane (2 mL) was added dropwise to a freshly prepared 4% aqueous solution of solubilizer (Kolliphor® ELP or Pluronic F127) (5 mL) heated to 45 °C with continuous argon bubbling. Bubbling was continued until strong foaming started. A clear orange solution with a concentration of 1.0% was obtained, which was subsequently filtered in turn through 0.45 µm PTFE filter and then through 0.22 µm PTFE filter.

Series [3] concerns rabbit eye cornea. On the set-up: method as in PMID 35628162. To be noted: n = 8, cited from earlier work.
In series [4] the test system is rabbit eye cornea. Put plainly: Local anesthetic activity, surface anesthesia on rabbit eye cornea, Regnier method. To be noted: solutions irradiated with UV light λ = 365 nm vs dark.
Description: The essence of the method is to estimate the number of eye closures during the tactile exposure of the cornea of a rabbit’s eye. According to the method, four animals (eight experimental points) were selected for each group, except two groups with a negative control. For the latter two animals (four experimental points) were used due to the lack of the activity and to minimize the number of animals in the experiment. The animals were randomly divided into four experimental (1% ETH·HCl in 4% Kolliphor ELP or in 4% Pluronic F127, two modes with and without UV irradiation) and four control groups (4% Kolliphor ELP or 4% Pluronic F127, two modes with and without UV irradiation).
For determination of the sensitivity of rabbit eye cornea using the surface anesthesia method, a total of four rabbits with a basic sensitivity threshold of 1–2 touches were selected. […]
Before the experiment began, the animal was restrained, leaving only its head free. The eyelashes were cut and the sensitivity threshold was determined for each eye. […] After that, the sensitivity threshold of the eye cornea to tactile impact was determined. […] Each time, tactile stimulation of the same strength and rhythm was applied to the cornea and the minimum number of touches causing the eyelids to close (but no more than 100 touches and no longer than for 1 min) was recorded.
Series [5] is described as follows: Spectrophotometric determination of Z→E half-transformation time (t1/2) in solutions. Type of series: physicochemical. To be noted: after 365 nm irradiation, thermal back Z→E, room temperature. Here is the method:
This parameter depends on a number of conditions, including the solvent; therefore, at the next stage, the effect of the solubilizer on the t1/2 value was examined. The study was carried out by a standard method using UV/Vis spectrophotometry. At the beginning of the experiment, the spectrum of the initial photostationary state (PSS) with predominance of the E-form was recorded, after which the solution was irradiated with UV light (λ = 365 nm) and the spectrum of the resulting PSS, with predominance of the Z-form, was recorded.
Next, the rate of reverse isomerization was monitored by measuring the absorption intensity at 5 min intervals. […]
UV/Vis spectroscopy was used for the time determination of Z-isomers’ half-lifes. […] Then, lnAt/A0 values were calculated using Equation (1):(1) lnAt/A0=lnAbsPSS(dark)−Abstime/AbsPSS(dark)−AbsPSS(365nm), where AbsPSS(dark) , AbsPSS(365nm), and Abstime are absorbance values at λmax(E) in the dark at the beginning of the experiment, after UV light (λ = 365 nm) irradiation and at different time points from 0 to 60 min, respectively. Then, a graph was plotted depending on the lnAt/A0 values from the time, a trend line was calculated and a first-order rate constant (k) for the thermal back Z–E isomerization reaction was obtained as the slope of the trend line. […]

Setting [6] is: aqueous micellar solution of Kolliphor ELP, aqueous with cosolvent or surfactant or cyclodextrin, 4% micellar solution of Kolliphor ELP, read-out: Maximum Solubility of Ethercaine.
The mark [7] stands for this setting: aqueous micellar solution of Pluronic F127, aqueous with cosolvent or surfactant or cyclodextrin, 4% micellar solution of Pluronic F127, read-out: Maximum Solubility of Ethercaine.
Where [8] appears, read: water without excipients, water, no excipients, read-out: Maximum Solubility of Ethercaine.

Structures are written as SMILES. Converted amounts (≈) assume the structure as drawn. Structures can show the parent of a compound that is named as a salt. Where two headings read alike, the source gives them in different places. Marks after values point to notes of the source that are not given here.

With `c1ccc(N=Nc2ccc(OCCN3CCOCC3)cc2)cc1` [ETH, 4-(2-(N-Morpholino)-ethoxy)-azobenzene], in series [1], the “maximum concentration such that the solution remained stable” value was 0.6 wt.%. Further, the solubility in series [2] (setting [6]) is 6000 µg/mL (≈ 19.3 mM); in series [2] (aqueous micellar solution of Kolliphor ELP, aqueous with cosolvent or surfactant or cyclodextrin, 10% micellar solution of Kolliphor ELP, read-out: Maximum Solubility of Ethercaine), 10000 µg/mL (≈ 32.1 mM); in series [2] (setting [7]), 7000 µg/mL (≈ 22.5 mM); in series [2] (before development of the dosage form), 0.6%; in series [2] (developed dosage form), not below 2%; in series [2] (setting [8]), less than 1000 µg/mL. The “solubility of the anesthetic in water” value is recorded as 0.6 wt.% in series [2] (before the hydrochloride micellar dosage forms); not below 2 wt.% in series [2] (dosage forms based on micellar solutions of Kolliphor ELP and Pluronic F127).
Regarding `CCN(CC)CC(=O)Nc1c(C)cccc1C` [2% lidocaine hydrochloride, lidocaine hydrochloride], the “Regnier Index (Min—13, Max—1300)” value with rabbit eye cornea [3] (Dark) is 451 ± 40 (n = 8) ^a; with rabbit eye cornea [3] (UV λ = 365 nm) it was 469 ± 37 (n = 8) ^a.
In the case of `c1ccc(/N=N/c2ccc(OCCN3CCOCC3)cc2)cc1` [ETH·HCl, 4-(2-(N-Morpholino)-Ethoxy)-Azobenzene Hydrochloride], the solubility in series [2] (aqueous micellar solution of Kolliphor ELP, 4% micellar solution of Kolliphor ELP, read-out: Maximum Solubility of Ethercaine) was not below 20000 µg/mL; in series [2] (setting [6]), more than 20000 µg/mL; in series [2] (aqueous micellar solution of Pluronic F127, 4% micellar solution of Pluronic F127, read-out: Maximum Solubility of Ethercaine) it was not below 20000 µg/mL; in series [2] (setting [7]), more than 20000 µg/mL; in series [2] (setting [8]), 6000 µg/mL. For the same compound, the “decrease in the local anesthetic effect on UV irradiation (factor)” value with rabbit eye cornea [4] is 16–20. Further, the “Half-Transformation Time (t1/2)” value in series [5] (4% micellar solution of Kolliphor ELP) was 0.85 h; in series [5] (4% micellar solution of Pluronic F127), 1.15 h.
